Entries after “also recorded” stand apart in the source; their conditions may differ.
What was measured:
rat spermatozoa = experiment: Sander & Cramer spermicidal assay (in vitro); assay type: cell-based
Protocol: (§1) Sexually mature male mice and rats were autopsied following euthanasia by an overdose of Ketamin (≧200 mg/kg body weight; injected i.p.) and their cauda epididymis were excised. Working suspension of animal spermatozoa was prepared with the exudates obtained after careful pricking of the cauda epididymis with an injection needle (18 G) and the exudates were collected in a conical centrifuge tube.
(§2) The exudates/liquefied human semen samples were suspended in BWW medium (pre equilibrated at 37 degree C.). The spermatozoa with forward motility were separated from immotile or sluggishly motile cells by the swim-up technique and were allowed to disperse evenly within a CO2 incubator at 37 degree C. At least five aliquots from each sample was used to prepare the working spermatozoa suspension. The swim up procedure was as follows:
(§3) Pre equilibrated BWW medium (1.25 ml) was gently layered over cauda-exudates or liquefied human semen (1 ml) in a sterile 15 ml conical-based centrifuge tube. The tube was inclined at an angle of 45 degree and incubated for 1 hour at 37 degree C. in a CO2-incubator. It was then gently returned to the upright position and the uppermost 1 ml medium with a turbid appearance was removed. This aliquot of motile cells was pooled from each set, then diluted with same volumes of pre equilibrated BWW medium, centrifuged at 500 g for 5 minutes and finally resuspended in 1 ml pre equilibrated BWW medium to obtain a working suspension. The sperm cells were counted in a Makler chamber (Zygotec Systems, Springfield, M A, USA) and finally a working spermatozoa suspension having concentration of 25 to 30×10^6 cells/ml was prepared.
(§4) For in vitro assay of spermicidal effect, sperms collected from proven male rats and mice, and motile spermatozoa from liquefied human semen were used.
(§5) The assay was done following the Sander & Cramer assay method. Two hundred micro liter (200 microliters) of working spermatozoa suspension was added to 1 ml solution of test material in BWW medium and mixed on a light vortex for 10 seconds. A wet mount was immediately prepared on a clean microscopy glass slide and examined (at ×100) under a phase contrast microscope (Leitz, Biomed). The weakest concentration that immobilized all spermatozoa within 20 seconds of mixing was recorded as MEC. At least five fields were examined for each wet mount preparation. The observation was repeated with five individual spermatozoa suspension for each concentration of test compound solution. For negative control, saponin solutions were replaced by equal volume of BWW medium, while Nonoxynol 9 was used as positive control.

mouse spermatozoa = experiment: Sander & Cramer spermicidal assay (in vitro); assay type: cell-based
Protocol: as §1, §2, §3, §4, §5

Female cycling rats = experiment: Intra uterine application of Ac-B and IUI in rat, fertilization outcome; assay type: in vivo, Sprague-Dawley rats
Protocol: Female cycling rats weighing 180-200 g were obtained from the institutional Animal House. The duplex nature of the rat uterus with separate cervical canal helped us to organize both control and experimental sets in the same animal with exposure to identical physiological milieu.
On the day of pro-estrous, both horns of the uterus were exposed by mid-ventral incision of the abdomen under light anesthesia following intra peritoneal injection of Ketamin at a concentration of 100 mg/kg body weight, supported by inhalation of anesthetic-ether, during 17.00-17.30 hours of the day. IUI was performed by injecting 50 microliters of sperm suspensions with varied concentration (25-30, 40-50, and 50-55 million sperms/ml) through a 24 G needle fitted onto a tuberculin syringe in the cervical end of the uterine lumen of each horn. The muscle in the injection site was held tightly for a while to prevent leakage through the puncture. Prior to IUI, each rat received a injection of 1.75 mg Ac-B in 50 microliters BWW medium in the left horn and simple BWW medium in the right horn. The opened abdominal muscle and skin layers were properly sutured by suturing silk thread. The outer most skin layers were further fixed by metal clips. The wound was properly cleaned with antiseptic lotions. Each operated animal was housed individually in fresh cage for collection and counting of unfertilized oocytes, two celled embryos, and fragmented bodies. […] The abdomen was opened and each of the fallopian tubes was collected carefully. The content of each tube was flushed out by introducing BWW medium into each tube with the help of a 30 G hypodermic needle in a watch glass. The flushed out lavage was examined under an inverted phase contrast microscope (Leitz, Labovert, ×100) to score the number of recovered fertilized/unfertilized eggs from individual fallopian tube.

human spermatozoa = experiment: Membrane lipid peroxidation, MDA by thiobarbituric acid (TBA) test; assay type: cell-based; settings: Ac-B 10-120 microgram per ml, 20 seconds
Protocol: Membrane lipid peroxidation was estimated by the end point generation of malondialdehyde (MDA) determined by the thiobarbituric acid (TBA) test.
Suspension of human spermatozoa was prepared using the swim up technique, as described above. A series of dilutions (10, 20, 40, 60, 80, 100 and 120 microgram per ml) of Ac-B was prepared in BWW medium. From each test (Ac-B) solution, 800 microliters was taken out and mixed with 200 microliters of sperm suspension with a gentle vortex for 10 seconds. After 20 seconds of mixing, the treated spermatozoa were separated from the suspending medium by centrifugation. The pellet of washed spermatozoa was resuspended in physiological saline. A control set of untreated sperm was treated similarly. Membrane lipid peroxidation was estimated by the end point generation of malondialdehyde (MDA), determined by the thiobarbituric acid (TBA) test.
Briefly, diluted spermatozoa with or without treatment (250×10^6 cells in 1 ml) were mixed with 1 ml of cold 20% (wt/vol) trichloroacetic acid (TCA) to precipitate protein. The precipitate was pelleted by centrifugation (2000 rpm for 10 minutes), and 1 ml of the supernatant was incubated with 1 ml of 0.67% (wt/vol) TBA in a boiling water bath at 100 degree C. for 30 minutes. After cooling, the absorbance was determined by a spectrophotometer (UNICAM PU 8610 Kinetics spectrophotometer; Philips, Holland) at 535 nm.

[1] = 1.75 mg Ac-B intrauterine, sperm count 25-30 million/ml (N = 3)
[2] = 1.75 mg Ac-B intrauterine, sperm count 40-50 million/ml (N = 4)
[3] = 1.75 mg Ac-B intrauterine, sperm count 50-55 million/ml (N = 4)

Substance: Acaciaside-B [Ac-B]
- MEC as per Sander and Cramer Test (rat spermatozoa; Rat spermatozoa (N = 10), all immobilized within 20 seconds): 60 (±2) microgram per ml
- MEC, Sander-Cramer test (rat spermatozoa; rats): 60 µg/mL
- MEC as per Sander and Cramer Test (mouse spermatozoa; Mouse spermatozoa (N = 10), all immobilized within 20 seconds): 60 (±2) microgram per ml
- MEC, Sander-Cramer test (mouse spermatozoa; mice): 60 µg/mL
- Fertilized (number of eggs), treated horn (Female cycling rats; 1.75 mg Ac-B in 50 microliters BWW intrauterine before IUI, sperm count 25-30 million/ml (N = 3), flushing 38-40 hours after IUI): 0 (0%)
- Fertilized (%), treated horn (Female cycling rats; [1]): 0 (0%)
- Unfertilized (%), treated horn (Female cycling rats; [1]): 100%
- Unfertilized (number of eggs), treated horn (Female cycling rats; [1]): 17
- Fertilized (number of eggs), treated horn (Female cycling rats; [2]): 0 (%)
- Unfertilized (%), treated horn (Female cycling rats; [2]): 100%
- Unfertilized (number of eggs), treated horn (Female cycling rats; [2]): 19
- Fertilized (%), treated horn (Female cycling rats; [3]): 18%
- Fertilized (number of eggs), treated horn (Female cycling rats; [3]): 3
- Unfertilized (%), treated horn (Female cycling rats; [3]): 82%
- Unfertilized (number of eggs), treated horn (Female cycling rats; [3]): 13
- Production of malondialdehyde (MDA) (human spermatozoa): increase in the production of MDA; also recorded: dose-dependent increased generation of malondialdehyde (MDA)

— patent US8729034B2, “Pharmaceutical composition having virucidal and spermicidal activity” (priority 2007, dated 2014)
